Results as given in patent US9056835B2, “LPA2 receptor-specific benzoic acid derivatives” (University of Tennessee Research Foundation, priority 2012, dated 2015).

Experiments:
[1] = test system: C57BL/6 mice; assay: Radiation-induced mortality, 15.68 Gy PBI-BM5; type: in vivo, mouse; details: 15.68 Gy PBI-BM5, single 1 mg/kg s.c. 24 h after irradiation
Protocol: 10-week old female C57BL/6 mice were exposed to a 15.68 Gy (˜LD60/8-10) dose of γ-irradiation from a ^137Cs Source. Twenty four hours after irradiation mice were treated with a single 200 μL subcutaneous injection of 1 mg/kg of the test compounds 5b, 7a, and 7b dissolved in 0.8% DMSO, 1% ethanol, 2% propanediol in PBS buffer. The animals were observed daily and provided with food and water ad libitum. Form day four onward the mice also were provided with a gel food diet. The study endpoint was mortality by day 20.

[2] = test system: LPA2 DKO MEF cells; assay: Adriamycin-induced caspase 3/7 activation in LPA2 DKO MEF and EV DKO MEF cells; type: cell-based, mouse; details: 1-3 μM, 1 h before Adriamycin
Protocol: (§1) Mouse embryonic fibroblast (MEF) cells used in this study isolated from LPA1/2 double knock out (LPA2-DKO) mice {Lin, 2007 #132}. These MEF express LPA4/5/6 receptors endogenously at lower levels but completely lack LPA1/2/3 receptor subtypes. The human LPA2 receptor was reintroduced into these MEF cells by lentiviral transduction, which are designated LPA2 DKO MEF {Lin, 2007 #132}. Empty vector-transduced MEF cells, designates as EV DKO MEF, were used as a control. Cells were cultured in a DMEM supplemented with 10% v/v fetal bovine serum (FBS), 2 mM L-glutamine, 100 U/ml penicillin, and 100 μg/mL streptomycin. During serum starvation, the growth medium was replaced with DMEM containing 0.1% (w/v) BSA.
(§2) The cells were plated in 48 well plates (2×10^4 cells/well) and cultured overnight in full growth medium. Next morning the growth medium was replaced by serum-free starvation medium and cells were pretreated for 1 hour with LPA (1 or 3 μM), compound 5b or 7b (1, 3 or 10 μM). Apoptosis was elicited by 1.7 μM Adriamycin in vector and LPA2 transduced MEF cells. Caspase 3, 7, 8, 9 activity and DNA fragmentation were measured to assess apoptosis 5 h after Adriamycin exposure.
To measure caspase activation the cells were lysed in 50 μl Caspase-Glow® reagent (Caspase 3/7, 8, 9 Promega, Madison, Wis.). The cells were shaken with the caspase reagent for 30 min at room temperature (RT). After 30 min, the luminescence was measured using a BioTek (Winooski, Vt.) plate reader. The mean caspase activity in triplicates/experimental group±SD was calculated. LPA was used as a positive control in all experiments.

[3] = target: T1, LPA2 (Homo sapiens, UniProt Q9HBW0); assay: LPA receptor-mediated Ca2+ mobilization assay, LPA2 (RH7777 cells stably expressing LPA2); type: cell-based; set-up: expressed in transfected cells; details: Ca2+ transients, RH7777 cells stably expressing LPA2; for EC50: read-out: EC50 (μM) (RH7777)
Protocol: Similarity searches were performed separately using each fingerprint to quantitate similarity. Hits meeting the 80% similarity threshold from each search were ranked based on the Tanimoto coefficient measure of similarity to a target molecule NSC12404, and the top 75 unique hits from each fingerprint search were selected for further analysis. […] This selected a diverse subset of 27 compounds for biological evaluation by choosing the middle compounds in each cluster. These 27 compounds were tested in Ca^2+ mobilization assays at a concentration of 10 μM using stable cell lines individually expressing LPA2 and also in vector-transfected control cells. Hits activating LPA2 were further tested using cells expressing the other established and putative LPA GPCRs. […] They arbitrarily selected GRI977143 for further characterization in cell-based assays.
The newly-synthesized compounds were tested for their ability to induce Ca^2+ transients in RH7777 cells stably expressing the LPA2 receptor.
The cells were loaded with Fura-2-acetoxymethyl esther (Fura-2/AM) in Krebs buffer containing 0.01% pluronic acid for 30 min and rinsed with Krebs buffer before measuring Ca^2+ mobilization. The ratio of peak emissions at 510 nm after 2 min of ligand addition was determined for excitation wavelengths of 340 nm/380 nm. All samples were run in quadruplicate. […] The half maximally effective concentration (EC50), and inhibitory constant (Ki) values were calculated by fitting a sigmoid function to dose-response data points using KaleidaGraph software (version 4.1, Synergy Software; […]).
Mouse embryonic fibroblast (MEF) cells were isolated from E13.5 LPA1&2 double knockout (DKO) embryos. MEFs were transduced with empty vector or LPA2-containing lentiviruses and selected with 1.5 μg/ml puromycin. Cells were maintained in Dulbecco's modified Eagle medium (DMEM) supplemented with 10% (V/V) fetal bovine serum (FBS), 2 mM L-glutamine, 100 U/mL penicillin, and 100 μg/mL streptomycin. Serum-free medium contained 0.1% (W/V) BSA in DMEM. The rat intestinal epithelial cell line 6 (IEC-6) was obtained from the American Type Culture Collection (Rockville, Md.) at passage 13; passages 16-21 were used in all experiments. IEC-6 cells were maintained in a humidified 37° C. incubator in an atmosphere of 90% air and 10% CO2. Growth medium consisted of DMEM supplemented with 5% heat inactivated FBS, 10 μg/mL insulin, and 50 μg/mL gentamycin. The composition of the serum-starvation medium was the same as that of the full growth medium except that it contained no FBS. The McArdle rat hepatoma cell line (RH7777) stably expressing LPA2 receptors was a gift from Dr. Fumikazu Okajima (Gunma University, Maebashi, Japan). RH7777 cells stably expressing LPA1 or LPA3 receptors were generated in-house and had been characterized earlier. Wild type and LPA receptor (LPAR) stably transfected RH7777 cells were grown in DMEM supplemented with 10% FBS and 2 mM L-glutamine in the presence of 250 μg/ml G418. Chinese hamster ovary (CHO) cells stably expressing either vector or LPA4 receptor were a kind gift from Dr. Takao Shimizu (Tokyo University; Tokyo, Japan). Cells were cultured in Ham's F12 medium containing 10% FBS, 2 mM L-glutamine, and 350 μg/ml G418. Rat neuroblastoma cells (B103) were transduced with the lentivirus harboring wild type of FLAG-LPA5 and selected with puromycin to establish the stable cell lines. The stable cells were maintained in DMEM supplemented with 10% FBS and 0.4 μg/ml puromycin. GPR87- and P2Y10-expressing CHO cells and vector-transfected control cells were a gift from Dr. Norihisha Fujita (Ritsumeikan University; Shiga, Japan). The highly invasive MM1 rat hepatoma cells (gift from Dr. Michiko Mukai, Osaka University, Japan) were grown in suspension in DMEM supplemented with 10% (V/V) FBS, 2 mM L-glutamine, 100 U/mL penicillin, and 100 μg/mL streptomycin.

[4] = target: T1, LPA2; assay: Fura-2AM Ca2+ mobilization in LPA2 DKO MEF cells; type: cell-based; set-up: expressed in transfected cells; host or cells: mouse embryonic fibroblasts from LPA1/2 double-knockout mice, lentiviral transduction; details: for EC50: DKO MEF; for Emax: MEF
Protocol: (§3) Fluorescence was read every 3.42 seconds for a total of 70 seconds at Ex/Emλ of 340/510 nm and 380/510 nm. Data (relative fluorescence) was then recorded as a mean fluorescence ratio value of the triplicates for each concentration. Graph Pad Prism version 5.0a was then used to fit a non-linear regression curve in a variable slope model (A) to determine the EC50, Emax, and curve fit (R^2)(B).
as §1, §3

[5] = test system: LPA2 DKO MEF cells; assay: Adriamycin-induced DNA fragmentation in LPA2 DKO MEF and EV DKO MEF cells; type: cell-based, mouse
Protocol: as §1, §2
DNA fragmentation was quantified by using the Cell Death Detection ELISA assay kit (Roche Diagnostics, Penzberg, Germany). 20 μl cell lysate was incubated with the anti-histone-biotin anti-DNA-peroxidase-conjugated antibody in a 96-well streptavidin-coated plate with shaking at RT for 2 h. After washing the wells three-times with the incubation buffer, 100 μl/well 2,2′-azino-di(3-ethylbenzthiazolin-sulfonate) substrate was added and the absorbance was measured at 405 nm. Protein concentration was measured using BCA Protein Assay Kit (Thermo Fisher Scientific Inc., Rockford, Ill.). DNA fragmentation was expressed as absorbance units/mg protein. LPA was used as a positive control in all experiments.

T1 sequence (Q9HBW0 whole entry): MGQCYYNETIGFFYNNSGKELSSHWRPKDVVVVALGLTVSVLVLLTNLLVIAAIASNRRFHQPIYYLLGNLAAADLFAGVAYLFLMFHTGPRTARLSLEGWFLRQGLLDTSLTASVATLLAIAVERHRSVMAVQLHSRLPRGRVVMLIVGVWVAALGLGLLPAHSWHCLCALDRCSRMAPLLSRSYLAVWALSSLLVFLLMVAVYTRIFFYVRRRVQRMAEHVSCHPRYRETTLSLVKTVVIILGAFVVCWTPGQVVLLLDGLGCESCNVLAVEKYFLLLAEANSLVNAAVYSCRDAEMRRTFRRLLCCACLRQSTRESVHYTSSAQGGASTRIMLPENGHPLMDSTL

Compound: O=C(O)c1ccc(Br)cc1S(=O)(=O)NCCCCN1C(=O)c2cccc3cccc(c23)C1=O [Compound 7b, 4-bromo-2-(N-(4-(1,3-dioxo-1H-benzo[de]isoquinolin-2(3H)-yl)butyl)sulfamoyl) benzoic acid]
- mortality by day 20 [1]: ineffective
- caspase-3/7 activation (apoptosis) ([2]; EV DKO MEF): not in EV DKO MEF cells
- caspase-3/7 activation (apoptosis) ([2]; LPA2 DKO MEF): significantly reduced apoptosis
- Emax [3]: 100%
- EC50 [3]: 1 µM
- EC50 [4]: 0.4 µM
- Emax [4]: 100%

Compound: O=C(O)c1ccc([N+](=O)[O-])cc1S(=O)(=O)NCCCCN1C(=O)c2cccc3cccc(c23)C1=O [Compound 7a, 2-(N-(4-(1,3-dioxo-1H-benzo[de]isoquinolin-2(3H)-yl)butyl)sulfamoyl)-4-nitrobenzoic acid]
- mortality by day 20 [1]: significantly reduced mortality
- EC50 [3]: > 10 µM
- EC50 [4]: > 10 µM

Compound: O=C(O)c1ccccc1S(=O)(=O)NCCCN1C(=O)c2cccc3cccc(c23)C1=O [Compound 5a, 2-[3-(1,3-Dioxo-1H,3H-benzo[de]isoquinolin-2-yl)propylsulfamoyl]benzoic acid]
- mortality by day 20 [1]: significantly reduced mortality
- protection from DNA fragmentation ([5]; EV DKO MEF cells): no protection
- reduction of DNA fragmentation ([5]; LPA2 DKO MEF, 10 μM, 60 min pretreatment, Adriamycin): ~50%
- protection from Adriamycin induced DNA fragmentation ([5]; LPA2 transduced cells, 3 μM): selectively protected
- caspase-3/7 activation (apoptosis) ([2]; EV DKO MEF): not in EV DKO MEF cells
- caspase-3/7 activation (apoptosis) ([2]; LPA2 DKO MEF): significantly reduced apoptosis
- EC50 [3]: 2.2 µM

Compound: O=C(O)c1ccc2c(c1)S(=O)(=O)N(CCCCN1C(=O)c3cccc4cccc(c34)C1=O)C2=O [Compound 9, 2-(4-(1,3-dioxo-1H-benzo[de]isoquinolin-2(3H)-yl)butyl)-3-oxo-2,3-dihydrobenzo[d]isothiazole-6-carboxylic acid 1,1-dioxide]
- Emax [3]: 75%
- EC50 [3]: 3.6 µM

Compound: O=C(O)c1ccccc1S(=O)(=O)NCCCCN1C(=O)c2cccc3cccc(c23)C1=O [Compound 5b, 2-[4-(1,3-Dioxo-1H,3H-benzo[de]isoquinolin-2-yl)butylsulfamoyl]benzoic acid]
- Emax [3]: 100%
- EC50 [3]: 0.5 µM
- EC50 [4]: 0.5 µM
- Emax [4]: 100%

Compound: O=C(O)c1ccccc1S(=O)(=O)NCCCCCN1C(=O)c2cccc3cccc(c23)C1=O [Compound 5c]
- Emax [3]: 100%
- EC50 [3]: 1.2 µM

Compound: COc1ccc(C(=O)O)c(S(=O)(=O)NCCCCN2C(=O)c3cccc4cccc(c34)C2=O)c1 [Compound 7c, 2-(N-(4-(1,3-dioxo-1H-benzo[de]isoquinolin-2(3H)-yl)butyl)sulfamoyl)-4-methoxybenzoic acid]
- EC50 [3]: > 10 µM
